Columns and labels:
bedstraw = test: Test B pre/postemergence bedstraw; type: in vivo, Galium aparine
In short: (§1)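 Herbicidal effect was estimated by eye on a ten-point control scale after plants spent twelve to sixteen days in a greenhouse following soil or foliar treatment. Foliar sprays targeted plants at one to four leaves; all doses were formulated in a non-phytotoxic solvent with surfactant.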

blackgrass = test: Test B pre/postemergence blackgrass; type: in vivo, Alopecurus myosuroides
In short: as §1

surinam grass = test: Test B pre/postemergence surinam grass; type: in vivo, Brachiaria decumbens
In short: as §1

cocklebur = test: Test B pre/postemergence cocklebur; type: in vivo, Xanthium strumarium
In short: as §1

corn = test: Test B pre/postemergence corn; type: in vivo, Zea mays
In short: as §1

crabgrass = test: Test B pre/postemergence crabgrass; type: in vivo, Digitaria sanguinalis
In short: as §1

giant foxtail = test: Test B pre/postemergence giant foxtail; type: in vivo, Setaria faberii
In short: as §1

morningglory = test: Test B pre/postemergence morningglory; type: in vivo, Ipomoea hederacea
In short: as §1

pigweed = test: Test B pre/postemergence pigweed; type: in vivo, Amaranthus retroflexus
In short: as §1

rape = test: Test B pre/postemergence rape; type: in vivo, Brassica napus
In short: as §1

soybean = test: Test B pre/postemergence soybean; type: in vivo, Glycine max
In short: as §1

sugar beet = test: Test B pre/postemergence sugar beet; type: in vivo, Beta vulgaris
In short: as §1

velvetleaf = test: Test B pre/postemergence velvetleaf; type: in vivo, Abutilon theophrasti
In short: as §1

wheat = test: Test B pre/postemergence wheat; type: in vivo, Triticum aestivum
In short: as §1

wild oat = test: Test B pre/postemergence wild oat; type: in vivo, Avena fatua
In short: as §1

purple nutsedge = test: Test B pre/postemergence purple nutsedge; type: in vivo, Cyperus rotundus
In short: as §1

[1] = Postemergence, Rate 62 g/ha, scale 0 to 10, 0 is no effect, 10 is complete control
[2] = Postemergence, Rate 125 g/ha, scale of 0 to 10 where 0 is no effect and 10 is complete control
[3] = Postemergence, Rate 500 g/ha, scale 0 (no effect) to 10 (complete control)
[4] = Preemergence, Rate 250 g/ha, scale 0 (no effect) to 10 (complete control)
[5] = Rate 62 g/ha, Preemergence, scale 0 to 10
[6] = Rate 125 g/ha, Preemergence, scale 0 to 10 (0 no effect, 10 complete control)
[7] = Rate 500 g/ha, Preemergence, scale 0 to 10 (0 no effect, 10 complete control)
[8] = Rate 250 g/ha, Postemergence, scale 0 to 10, 0 is no effect, 10 is complete control

## C#CCn1c(=O)on(C(=O)N(c2ccc(F)cc2F)C(C)C)c1=O [Compound 764]
bedstraw; [1]
  Plant response rating, Bedstraw: 0
bedstraw; [2]
  Bedstraw plant response rating: 5
bedstraw; [3]
  Bedstraw plant response rating: 5
bedstraw; [4]
  Bedstraw plant response rating: 5
bedstraw; [5]
  Bedstraw plant response rating: 0
bedstraw; [6]
  Bedstraw plant response rating: 5
bedstraw; [7]
  Bedstraw plant response rating: 8
blackgrass; [1]
  Plant response rating, Blackgrass: 3
blackgrass; [2]
  Blackgrass plant response rating: 6
blackgrass; [3]
  Blackgrass plant response rating: 8
blackgrass; [4]
  Blackgrass plant response rating: 8
blackgrass; [5]
  Blackgrass plant response rating: 7
blackgrass; [6]
  Blackgrass plant response rating: 7
blackgrass; [8]
  Blackgrass plant response rating: 6
blackgrass; [7]
  Blackgrass plant response rating: 9
Surinam grass; [1]
  Plant response rating, B. signalgrass: 0
Surinam grass; [2]
  B. signalgrass plant response rating: 0
Surinam grass; Preemergence, Rate 62 g/ha, scale of 0 to 10 where 0 is no effect and 10 is complete control
  B. signalgrass plant response rating: 8
Surinam grass; [4]
  B. signalgrass plant response rating: 9
Surinam grass; [6]
  B. signalgrass plant response rating: 7
Surinam grass; [8]
  B. signalgrass plant response rating: 2
Surinam grass; Rate 500 g/ha, Postemergence, scale 0 to 10, 0 is no effect, 10 is complete control
  B. signalgrass plant response rating: 3
Surinam grass; [7]
  B. signalgrass plant response rating: 10
cocklebur; [1]
  Plant response rating, Cocklebur: 0
cocklebur; [2]
  Cocklebur plant response rating: 0
cocklebur; [3]
  Cocklebur plant response rating: 5
cocklebur; [4]
  Cocklebur plant response rating: 0
cocklebur; [5]
  Cocklebur plant response rating: 0
cocklebur; [8]
  Cocklebur plant response rating: 2
cocklebur; [7]
  Cocklebur plant response rating: 8
corn; [1]
  Plant response rating, Corn: 0
corn; [2]
  Corn plant response rating: 0
corn; [3]
  Corn plant response rating: 4
corn; [4]
  Corn plant response rating: 6
corn; [5]
  Corn plant response rating: 0
corn; [6]
  Corn plant response rating: 0
corn; [8]
  Corn plant response rating: 0
corn; [7]
  Corn plant response rating: 9
crabgrass; [1]
  Plant response rating, Crabgrass: 0
crabgrass; [2]
  Crabgrass plant response rating: 6
crabgrass; [3]
  Crabgrass plant response rating: 9
crabgrass; [4]
  Crabgrass plant response rating: 10
crabgrass; [5]
  Crabgrass plant response rating: 10
crabgrass; [6]
  Crabgrass plant response rating: 10
crabgrass; [8]
  Crabgrass plant response rating: 9
crabgrass; [7]
  Crabgrass plant response rating: 10
Giant foxtail; [1]
  Plant response rating, Giant foxtail: 3
Giant foxtail; [2]
  Giant foxtail plant response rating: 7
Giant foxtail; [3]
  Giant foxtail plant response rating: 8
Giant foxtail; [4]
  Giant foxtail plant response rating: 10
Giant foxtail; [5]
  Giant foxtail plant response rating: 10
Giant foxtail; [6]
  Giant foxtail plant response rating: 10
Giant foxtail; [8]
  Giant foxtail plant response rating: 8
Giant foxtail; [7]
  Giant foxtail plant response rating: 10
morningglory; [1]
  Plant response rating, Morningglory: 1
morningglory; [2]
  Morningglory plant response rating: 1
morningglory; [3]
  Morningglory plant response rating: 5
morningglory; [4]
  Morningglory plant response rating: 0
morningglory; [5]
  Morningglory plant response rating: 0
morningglory; [8]
  Morningglory plant response rating: 2
morningglory; [7]
  Morningglory plant response rating: 2
pigweed; [1]
  Plant response rating, Redroot pigweed: 0
pigweed; [2]
  Redroot pigweed plant response rating: 5
pigweed; [3]
  Redroot pigweed plant response rating: 7
pigweed; [4]
  Redroot pigweed plant response rating: 10
pigweed; [5]
  Redroot pigweed plant response rating: 9
pigweed; [6]
  Redroot pigweed plant response rating: 10
pigweed; [8]
  Redroot pigweed plant response rating: 7
pigweed; [7]
  Redroot pigweed plant response rating: 10
rape; [1]
  Plant response rating, Rape: 0
rape; [2]
  Rape plant response rating: 0
rape; [3]
  Rape plant response rating: 7
rape; [4]
  Rape plant response rating: 9
rape; [5]
  Rape plant response rating: 0
rape; [6]
  Rape plant response rating: 0
rape; [8]
  Rape plant response rating: 3
rape; [7]
  Rape plant response rating: 10
soybean; [1]
  Plant response rating, Soybean: 1
soybean; [3]
  Soybean plant response rating: 4
soybean; [4]
  Soybean plant response rating: 3
soybean; [5]
  Soybean plant response rating: 0
soybean; [6]
  Soybean plant response rating: 0
soybean; [8]
  Soybean plant response rating: 3
soybean; [7]
  Soybean plant response rating: 5
Sugar beet; [1]
  Plant response rating, Sugarbeets: 0
Sugar beet; [3]
  Sugarbeets plant response rating: 7
Sugar beet; [4]
  Sugarbeets plant response rating: 5
Sugar beet; [5]
  Sugarbeets plant response rating: 0
Sugar beet; [6]
  Sugarbeets plant response rating: 0
Sugar beet; [8]
  Sugarbeets plant response rating: 3
Sugar beet; [7]
  Sugarbeets plant response rating: 8
velvetleaf; [1]
  Plant response rating, Velvetleaf: 0
velvetleaf; [3]
  Velvetleaf plant response rating: 4
velvetleaf; [4]
  Velvetleaf plant response rating: 5
velvetleaf; [5]
  Velvetleaf plant response rating: 3
velvetleaf; [6]
  Velvetleaf plant response rating: 5
velvetleaf; [8]
  Velvetleaf plant response rating: 4
velvetleaf; [7]
  Velvetleaf plant response rating: 8
wheat; [1]
  Plant response rating, Wheat: 0
wheat; [5]
  Wheat plant response rating: 0
wheat; [6]
  Wheat plant response rating: 3
wheat; [8]
  Wheat plant response rating: 7
wheat; [7]
  Wheat plant response rating: 7
Wild oat; [1]
  Plant response rating, Wild oats: 0
Wild oat; [3]
  Wild oats plant response rating: 3
Wild oat; [4]
  Wild oats plant response rating: 6
Wild oat; [5]
  Wild oats plant response rating: 0
Wild oat; [6]
  Wild oats plant response rating: 3
Wild oat; [8]
  Wild oats plant response rating: 2
Wild oat; [7]
  Wild oats plant response rating: 7
Purple nutsedge; [1]
  Plant response rating, Nutsedge: 0
Purple nutsedge; [2]
  Nutsedge plant response rating: 0
Purple nutsedge; [3]
  Nutsedge plant response rating: 3
Purple nutsedge; [4]
  Nutsedge plant response rating: 0
Purple nutsedge; [5]
  Nutsedge plant response rating: 0
Purple nutsedge; [6]
  Nutsedge plant response rating: 0
Purple nutsedge; [8]
  Nutsedge plant response rating: 0
Purple nutsedge; [7]
  Nutsedge plant response rating: 4
